Assay results: patent US20120077737A1, “HEPATITIS C INHIBITOR COMPOUNDS” (priority 2009, published 2012)
Like-named read-outs stand apart in the source and are kept apart here.

How the values were obtained:
[1] = tested on: HCV genotype 1a subgenomic replicon with NS3 resistance mutation R155K; assay: HCV replicon RNA replication assay, R155K 1a; assay type: cell-based, HCV genotype 1a (strain H77), Huh-7 cells; conditions: Hepatitis C virus, read-out: R155K 1a Ec50 (nM)
[2] = tested on: HCV genotype 1b subgenomic replicon with NS3 resistance mutation D168V; assay: HCV replicon RNA replication assay, D168V 1b; assay type: cell-based, HCV genotype 1b (Con-1), Huh-7 cells; conditions: Hepatitis C virus, read-out: D168V 1b Ec50 (nM)
[3] = tested on: HCV genotype 1a subgenomic replicon with NS3 resistance mutation D168V; assay: HCV replicon RNA replication assay, D168V 1a; assay type: cell-based, HCV genotype 1a (strain H77), Huh-7 cells; conditions: Hepatitis C virus, read-out: D168V 1a Ec50 (nM)
[4] = tested on: HCVPV1a subgenomic replicon (wild type 1a); assay: HCV replicon RNA replication assay, wild type 1a; assay type: cell-based, HCV genotype 1a (strain H77), Huh-7 cells; conditions: Hepatitis C virus, read-out: WT 1a Ec50
[5] = tested on: HCVPV1b subgenomic replicon (wild type 1b); assay: HCV replicon RNA replication assay, wild type 1b; assay type: cell-based, HCV genotype 1b (Con-1), Huh-7 cells; conditions: Hepatitis C virus, read-out: WT 1b Ec50
[6] = Table 1, luciferase replicon, Huh-7, 72 h

**Q.** How did the EC50 ([1]; Huh-7, 72 h) turn out when `COc1c(F)ccc2c(O[C@@H]3C[C@H]4C(=O)N[C@]5(C(=O)NS(=O)(=O)C6(C)CC6)C[C@H]5/C=C\CCCCC[C@H](NC(=O)c5ccn(CC(F)(F)F)n5)C(=O)N4C3)cc(OC(C)C)nc12` [Compound 1026, (2R,6S,12Z,13aS,14aR,16aS)-2-{[7-fluoro-8-methoxy-2-(propan-2-yloxy)quinolin-4-yl]oxy}-N-[(1-methylcyclopropyl)sulfonyl]-5,16-dioxo-6-({[1-(2,2,2-trifluoroethyl)-1H-pyrazol-3-yl]carbonyl}amino)-1,2,3,6,7,8,9,10,11,13a,14,15,16,16a-tetradecahydrocyclopropa[e]pyrrolo[1,2-a][1,4]diazacyclopentadecine-14a(5H)-carboxamide] was run?
**A.** 1.6 nM

**Q.** And the EC50 ([2]; Huh-7, 72 h)?
**A.** 0.34 nM

**Q.** What about the EC50 ([3]; Huh-7, 72 h) of the same molecule?
**A.** 0.7 nM

**Q.** What about the EC50 [4, 6] of the same molecule?
**A.** 0.52 nM

**Q.** What about the EC50 [5, 6] of the same molecule?
**A.** 0.31 nM

**Q.** Which results are given for `Cc1c(F)ccc2c(O[C@@H]3C[C@H]4C(=O)N[C@]5(C(=O)NS(=O)(=O)C6(C)CC6)C[C@H]5/C=C\CCCCC[C@H](NC(=O)c5ccn(C)n5)C(=O)N4C3)cc(OC(C)C)nc12` [Compound 1008, (2R,6S,12Z,13aS,14aR,16aS)-2-{[7-fluoro-8-methyl-2-(propan-2-yloxy)quinolin-4-yl]oxy}-N-[(1-methylcyclopropyl)sulfonyl]-6-{[(1-methyl-1H-pyrazol-3-yl)carbonyl]amino}-5,16-dioxo-1,2,3,6,7,8,9,10,11,13a,14,15,16,16a-tetradecahydrocyclopropa[e]pyrrolo[1,2-a][1,4]diazacyclopentadecine-14a(5H)-carboxamide]?
**A.** EC50 ([1]; Huh-7, 72 h): 1.9 nM; EC50 ([2]; Huh-7, 72 h): 0.2 nM; EC50 ([3]; Huh-7, 72 h): 6.6 nM; EC50 [4, 6]: 0.24 nM; EC50 [5, 6]: 0.35 nM

**Q.** What does the source list for `COc1ccc2c(O[C@@H]3C[C@H]4C(=O)N[C@]5(C(=O)NS(=O)(=O)C6(C)CC6)C[C@H]5/C=C\CCCCC[C@H](NC(=O)c5ccn(CC(=O)N(C)C)n5)C(=O)N4C3)cc(OC(C)C)nc2c1C` [Compound 1017, (2R,6S,12Z,13aS,14aR,16aS)-6-[({1-[2-(dimethylamino)-2-oxoethyl]-1H-pyrazol-3-yl}carbonyl)amino]-2-{[7-methoxy-8-methyl-2-(propan-2-yloxy)quinolin-4-yl]oxy}-N-[(1-methylcyclopropyl)sulfonyl]-5,16-dioxo-1,2,3,6,7,8,9,10,11,13a,14,15,16,16a-tetradecahydrocyclopropa[e]pyrrolo[1,2-a][1,4]diazacyclopentadecine-14a(5H)-carboxamide]?
**A.** EC50 ([1]; Huh-7, 72 h): 1.2 nM; EC50 ([2]; Huh-7, 72 h): 1.5 nM; EC50 ([3]; Huh-7, 72 h): 2.7 nM; EC50 [4, 6]: 1.1 nM; EC50 [5, 6]: 1.1 nM

**Q.** For `COc1ccc2c(O[C@@H]3C[C@H]4C(=O)N[C@@]5(C(=O)NS(=O)(=O)C6CC6)C[C@@H]5/C=C\CCCCN(C)C(=O)[C@@H]4C3)cc(-c3nc(C(C)C)cs3)nc2c1C` [reference compound], which EC50 [1] is on record?
**A.** 300 nM

**Q.** What about the EC50 [2] of the same molecule?
**A.** 4400 nM

**Q.** What about the EC50 [3] of the same molecule?
**A.** 3500 nM

**Q.** And the EC50 ([4]; Table 2, clinical comparators, wildtype genotype 1a)?
**A.** 0.7 nM

**Q.** What about the EC50 ([5]; Table 2, clinical comparators, wildtype genotype 1b) of the same molecule?
**A.** 1.2 nM

**Q.** `COCCn1ccc(C(=O)N[C@H]2CCCCC/C=C\[C@@H]3C[C@@]3(C(=O)NS(=O)(=O)C3(C)CC3)NC(=O)[C@@H]3C[C@@H](Oc4cc(OC(C)C)nc5c(C)c(OC)ccc45)CN3C2=O)n1` [Compound 1002, (2R,6S,12Z,13aS,14aR,16aS)-6-({[1-(2-methoxyethyl)-1H-pyrazol-3-yl]carbonyl}amino)-2-{[7-methoxy-8-methyl-2-(propan-2-yloxy)quinolin-4-yl]oxy}-N-[(1-methylcyclopropyl)sulfonyl]-5,16-dioxo-1,2,3,6,7,8,9,10,11,13a,14,15,16,16a-tetradecahydrocyclopropa[e]pyrrolo[1,2-a][1,4]diazacyclopentadecine-14a(5H)-carboxamide] was tested. Which EC50 ([1]; Huh-7, 72 h) did it give?
**A.** 1.5 nM

**Q.** And the EC50 ([2]; Huh-7, 72 h)?
**A.** 0.12 nM

**Q.** What about the EC50 ([3]; Huh-7, 72 h) of the same molecule?
**A.** 2.8 nM

**Q.** And the EC50 [4, 6]?
**A.** 0.38 nM

**Q.** And the EC50 [5, 6]?
**A.** 0.32 nM

**Q.** How did the EC50 ([1]; Huh-7, 72 h) turn out when `COc1ccc2c(O[C@@H]3C[C@H]4C(=O)N[C@]5(C(=O)NS(=O)(=O)C6CC6)C[C@H]5/C=C\CCCCC[C@H](NC(=O)c5ccn(CC(F)F)n5)C(=O)N4C3)cc(OC(C)C)nc2c1C` [Compound 1011, (2R,6S,12Z,13aS,14aR,16aS)-N-(cyclopropylsulfonyl)-6-({[1-(2,2-difluoroethyl)-1H-pyrazol-3-yl]carbonyl}amino)-2-{[7-methoxy-8-methyl-2-(propan-2-yloxy)quinolin-4-yl]oxy}-5,16-dioxo-1,2,3,6,7,8,9,10,11,13a,14,15,16,16a-tetradecahydrocyclopropa[e]pyrrolo[1,2-a][1,4]diazacyclopentadecine-14a(5H)-carboxamide] was run?
**A.** 3.9 nM

**Q.** What about the EC50 ([2]; Huh-7, 72 h) of the same molecule?
**A.** 0.24 nM

**Q.** What about the EC50 ([3]; Huh-7, 72 h) of the same molecule?
**A.** 6.4 nM

**Q.** And the EC50 [4, 6]?
**A.** 0.43 nM

**Q.** What about the EC50 [5, 6] of the same molecule?
**A.** 0.35 nM

**Q.** Which EC50 ([1]; Huh-7, 72 h) does the source give for `COc1ccc2c(O[C@@H]3C[C@H]4C(=O)N[C@]5(C(=O)NS(=O)(=O)C6CC6)C[C@H]5/C=C\CCCCC[C@H](NC(=O)c5ccc(C(C)(C)O)s5)C(=O)N4C3)cc(OC(C)C)nc2c1C` [Compound 1014, (2R,6S,12Z,13aS,14aR,16aS)-N-(cyclopropylsulfonyl)-6-({[5-(2-hydroxypropan-2-yl)thiophen-2-yl]carbonyl}amino)-2-{[7-methoxy-8-methyl-2-(propan-2-yloxy)quinolin-4-yl]oxy}-5,16-dioxo-1,2,3,6,7,8,9,10,11,13a,14,15,16,16a-tetradecahydrocyclopropa[e]pyrrolo[1,2-a][1,4]diazacyclopentadecine-14a(5H)-carboxamide] here?
**A.** 8.5 nM

**Q.** And the EC50 ([2]; Huh-7, 72 h)?
**A.** 0.82 nM

**Q.** And the EC50 ([3]; Huh-7, 72 h)?
**A.** 6.3 nM

**Q.** What about the EC50 [4, 6] of the same molecule?
**A.** 1.2 nM

**Q.** And the EC50 [5, 6]?
**A.** 1.2 nM

**Q.** With `COc1c(F)ccc2c(O[C@@H]3C[C@H]4C(=O)N[C@]5(C(=O)NS(=O)(=O)C6(C)CC6)C[C@H]5/C=C\CCCCC[C@H](NC(=O)c5ccn(C)n5)C(=O)N4C3)cc(OC(C)C)nc12` [Compound 1013, (2R,6S,12Z,13aS,14aR,16aS)-2-{[7-fluoro-8-methoxy-2-(propan-2-yloxy)quinolin-4-yl]oxy}-N-[(1-methylcyclopropyl)sulfonyl]-6-{[(1-methyl-1H-pyrazol-3-yl)carbonyl]amino}-5,16-dioxo-1,2,3,6,7,8,9,10,11,13a,14,15,16,16a-tetradecahydrocyclopropa[e]pyrrolo[1,2-a][1,4]diazacyclopentadecine-14a(5H)-carboxamide] as the molecule, how does the EC50 ([1]; Huh-7, 72 h) read?
**A.** 1.6 nM

**Q.** And the EC50 ([2]; Huh-7, 72 h)?
**A.** 0.45 nM

**Q.** And the EC50 ([3]; Huh-7, 72 h)?
**A.** 0.75 nM

**Q.** What about the EC50 [4, 6] of the same molecule?
**A.** 0.5 nM

**Q.** What about the EC50 [5, 6] of the same molecule?
**A.** 0.37 nM

**Q.** Which EC50 ([1]; Huh-7, 72 h) does the source give for `Cc1ccc2c(O[C@@H]3C[C@H]4C(=O)N[C@]5(C(=O)NS(=O)(=O)C6(C)CC6)C[C@H]5/C=C\CCCCC[C@H](NC(=O)c5ccn(C)n5)C(=O)N4C3)cc(OC(C)C)nc2c1Br` [Compound 1024, (2R,6S,12Z,13aS,14aR,16aS)-2-{[8-bromo-7-methyl-2-(propan-2-yloxy)quinolin-4-yl]oxy}-N-[(1-methylcyclopropyl)sulfonyl]-6-{[(1-methyl-1H-pyrazol-3-yl)carbonyl]amino}-5,16-dioxo-1,2,3,6,7,8,9,10,11,13a,14,15,16,16a-tetradecahydrocyclopropa[e]pyrrolo[1,2-a][1,4]diazacyclopentadecine-14a(5H)-carboxamide] here?
**A.** 9.3 nM

**Q.** What about the EC50 ([2]; Huh-7, 72 h) of the same molecule?
**A.** 0.09 nM

**Q.** What about the EC50 ([3]; Huh-7, 72 h) of the same molecule?
**A.** 1.9 nM

**Q.** And the EC50 [4, 6]?
**A.** 0.1 nM

**Q.** And the EC50 [5, 6]?
**A.** 0.13 nM

**Q.** Which results are given for `COc1ccc2c(O[C@@H]3C[C@H]4C(=O)N[C@]5(C(=O)NS(=O)(=O)C6(C)CC6)C[C@H]5/C=C\CCCCC[C@H](NC(=O)c5ccn(CC(F)F)n5)C(=O)N4C3)cc(OC(C)C)nc2c1C` [Compound 1001, (2R,6S,12Z,13aS,14aR,16aS)-6-({[1-(2,2-difluoroethyl)-1H-pyrazol-3-yl]carbonyl}amino)-2-{[7-methoxy-8-methyl-2-(propan-2-yloxy)quinolin-4-yl]oxy}-N-[(1-methylcyclopropyl)sulfonyl]-5,16-dioxo-1,2,3,6,7,8,9,10,11,13a,14,15,16,16a-tetradecahydrocyclopropa[e]pyrrolo[1,2-a][1,4]diazacyclopentadecine-14a(5H)-carboxamide]?
**A.** EC50 ([1]; Huh-7, 72 h): 0.96 nM; EC50 ([2]; Huh-7, 72 h): 0.1 nM; EC50 ([3]; Huh-7, 72 h): 0.78 nM; EC50 [4, 6]: 0.22 nM; EC50 [5, 6]: 0.17 nM

**Q.** Which results are given for `COc1c(F)ccc2c(O[C@@H]3C[C@H]4C(=O)N[C@]5(C(=O)NS(=O)(=O)C6(C)CC6)C[C@H]5/C=C\CCCCC[C@H](NC(=O)c5ccc(C)s5)C(=O)N4C3)cc(OC(C)C)nc12` [Compound 1028, (2R,6S,12Z,13aS,14aR,16aS)-2-{[7-fluoro-8-methoxy-2-(propan-2-yloxy)quinolin-4-yl]oxy}-N-[(1-methylcyclopropyl)sulfonyl]-6-{[(5-methylthiophen-2-yl)carbonyl]amino}-5,16-dioxo-1,2,3,6,7,8,9,10,11,13a,14,15,16,16a-tetradecahydrocyclopropa[e]pyrrolo[1,2-a][1,4]diazacyclopentadecine-14a(5H)-carboxamide]?
**A.** EC50 ([1]; Huh-7, 72 h): 6.5 nM; EC50 ([2]; Huh-7, 72 h): 0.52 nM; EC50 ([3]; Huh-7, 72 h): 5.5 nM; EC50 [4, 6]: 1.1 nM; EC50 [5, 6]: 0.69 nM
